Measured values published in ChEMBL document CHEMBL1821574, “Structure-activity relationships of 4-position diamine quinoline methanols as intermittent preventative treatment (IPT) against Plasmodium falciparum” (J Med Chem, 2011).
In brackets after ≈: the same amount, converted by molar mass.

What was measured:
[1] = test system: Plasmodium falciparum; test: Antimalarial activity against chloroquine-resistant and mefloquine-sensitive Plasmodium falciparum W2; type: functional
[2] = test system: Plasmodium berghei; test: Antimalarial activity against Plasmodium berghei infected in mouse assessed as host survival at 80 mg/kg, po administered as single dose; type: functional
[3] = test system: Plasmodium berghei; test: Antimalarial activity against Plasmodium berghei infected in mouse assessed as host survival at 160 mg/kg, po administered as single dose measured on day 31; type: functional; details: 744 h
[4] = test system: Plasmodium berghei; test: Antimalarial activity against Plasmodium berghei infected in mouse assessed as host survival at 40 mg/kg, po administered as single dose; type: functional
[5] = test system: Plasmodium falciparum; test: Antimalarial activity against chloroquine, mefloquine and pyrimethamine-resistant Plasmodium falciparum TM91C235; type: functional
[6] = test system: Plasmodium berghei; test: Antimalarial activity against Plasmodium berghei infected in mouse assessed as host survival at 20 mg/kg, po administered as single dose; type: functional
[7] = test system: Plasmodium berghei; test: Antimalarial activity against Plasmodium berghei infected in mouse assessed as complete cure at 10 mg/kg, po administered as single dose measured on day 31; type: functional
[8] = test system: Plasmodium berghei; test: Antimalarial activity against Plasmodium berghei infected in mouse assessed as host survival at 40 mg/kg, po administered as single dose measured on day 31; type: functional; details: 744 h
[9] = test system: Plasmodium berghei; test: Antimalarial activity against Plasmodium berghei infected in mouse assessed as host survival at 10 mg/kg, po administered as single dose measured on day 31; type: functional; details: 744 h
[10] = test system: Plasmodium berghei; test: Antimalarial activity against Plasmodium berghei infected in mouse assessed as host survival at 320 mg/kg, po administered as single dose; type: functional
[11] = test system: Plasmodium falciparum; test: Antimalarial activity against chloroquine-resistant and mefloquine-sensitive Plasmodium falciparum W2 assessed as inhibition of [3H]hypoxanthine incorporation by liquid scintillation spectrometry; type: functional
[12] = test system: Plasmodium berghei; test: Antimalarial activity against Plasmodium berghei infected in mouse assessed as host survival at 320 mg/kg, po administered as single dose measured on day 31; type: functional; details: 744 h
[13] = test system: Plasmodium berghei; test: Antimalarial activity against Plasmodium berghei infected in mouse assessed as host survival at 20 mg/kg, po administered as single dose measured on day 31; type: functional; details: 744 h
[14] = test system: Plasmodium berghei; test: Antimalarial activity against Plasmodium berghei infected in mouse assessed as host survival at 5 mg/kg, po administered as single dose; type: functional
[15] = test system: Plasmodium falciparum; test: Antimalarial activity against chloroquine-sensitive and mefloquine-resistant Plasmodium falciparum D6 assessed as inhibition of [3H]hypoxanthine incorporation by liquid scintillation spectrometry; type: functional
[16] = test system: Plasmodium berghei; test: Antimalarial activity against Plasmodium berghei infected in mouse assessed as host survival at 80 mg/kg, po administered as single dose measured on day 31; type: functional; details: 744 h
[17] = test system: Plasmodium berghei; test: Antimalarial activity against Plasmodium berghei infected in mouse assessed as host survival at 10 mg/kg, po administered as single dose; type: functional
[18] = test system: Plasmodium berghei; test: Antimalarial activity against Plasmodium berghei infected in mouse assessed as complete cure at 5 mg/kg, po administered as single dose measured on day 31; type: functional
[19] = test system: Plasmodium berghei; test: Antimalarial activity against Plasmodium berghei infected in mouse assessed as host survival at 5 mg/kg, po administered as single dose measured on day 31; type: functional; details: 744 h
[20] = test system: Plasmodium falciparum; test: Antimalarial activity against chloroquine-sensitive and mefloquine-resistant Plasmodium falciparum D6 by SYBR Green I-based fluorescence assay; type: functional
[21] = test system: Plasmodium berghei; test: Antimalarial activity against Plasmodium berghei infected in mouse assessed as host survival at 160 mg/kg, po administered as single dose; type: functional
[22] = test system: Plasmodium berghei; test: Antimalarial activity against Plasmodium berghei infected in mouse assessed as complete cure at 160 mg/kg, po administered as single dose measured on day 31; type: functional
[23] = test system: Plasmodium berghei; test: Antimalarial activity against Plasmodium berghei infected in mouse assessed as complete cure at 80 mg/kg, po administered as single dose measured on day 31; type: functional
[24] = test system: Plasmodium berghei; test: Antimalarial activity against Plasmodium berghei infected in mouse assessed as complete cure at 320 mg/kg, po administered as single dose measured on day 31; type: functional
[25] = test system: Plasmodium berghei; test: Antimalarial activity against Plasmodium berghei infected in mouse assessed as complete cure at 40 mg/kg, po administered as single dose measured on day 31; type: functional
[26] = test system: Plasmodium berghei; test: Antimalarial activity against Plasmodium berghei infected in mouse assessed as complete cure at 20 mg/kg, po administered as single dose measured on day 31; type: functional
[27] = test system: Plasmodium falciparum; test: Antimalarial activity against chloroquine, mefloquine and pyrimethamine-resistant Plasmodium falciparum TM91C235 by SYBR Green I-based fluorescence assay; type: functional
[28] = test system: Plasmodium falciparum; test: Antimalarial activity against chloroquine, mefloquine and pyrimethamine-resistant Plasmodium falciparum TM91C235 assessed as inhibition of [3H]hypoxanthine incorporation by liquid scintillation spectrometry; type: functional
[29] = test system: Plasmodium falciparum; test: Antimalarial activity against mefloquine-resistant and chloroquine-sensitive Plasmodium falciparum D6; type: functional
[30] = test system: Plasmodium falciparum; test: Antimalarial activity against chloroquine, mefloquine and pyrimethamine-resistant Plasmodium falciparum TM90C2A assessed as inhibition of [3H]hypoxanthine incorporation by liquid scintillation spectrometry; type: functional
[31] = Apparent permeability from apical to basolateral side of dog MDCK cells at 5 uM after 2 hrs by LC/MS/MS analysis; type: ADME, cell-based, Canis lupus familiaris
[32] = test system: Plasmodium falciparum; test: Antimalarial activity against chloroquine, mefloquine and pyrimethamine-resistant Plasmodium falciparum TM90C2A; type: functional

OC(c1cc(C(F)(F)F)nc2c(C(F)(F)F)cccc12)C1CCCCN1 (configuration not stated) [MEFLOQUINE]
IC90 [1]: 0.0067 µg/mL (≈ 0.0177 µM) | MST [2]: 28 days | survival at 160 mg/kg [3]: 50% | MST [4]: 26 days | IC90 [5]: 0.053 µg/mL (≈ 0.14 µM) | MST [6]: 22 days | Activity [7]: 0% | survival at 40 mg/kg [8]: 56% | survival at 10 mg/kg [9]: 0% | MST [10]: 24 days | IC90 [11]: 0.0067 µg/mL (≈ 0.0177 µM) | survival at 320 mg/kg [12]: 60% | survival at 20 mg/kg [13]: 30% | MST [14]: 17 days | IC90 [15]: 0.016 µg/mL (≈ 0.0423 µM) | survival at 80 mg/kg [16]: 70% | MST [17]: 15 days | Activity [18]: 20% | survival at 5 mg/kg [19]: 20% | IC90 [20]: 0.015 µg/mL (≈ 0.0396 µM) | MST [21]: 27 days | Activity [22]: 20% | Activity [23]: 30% | Activity [24]: 50% | Activity [25]: 36% | Activity [26]: 10% | IC90 [27]: 0.042 µg/mL (≈ 0.111 µM) | IC90 [28]: 0.053 µg/mL (≈ 0.14 µM) | IC90 [29]: 0.016 µg/mL (≈ 0.0423 µM)

CC1CCN(CC(C)(C)NCC(O)c2cc(C(F)(F)F)nc3c(C(F)(F)F)cccc23)CC1 (configuration not stated)
IC90 [30]: 0.066 µg/mL (≈ 0.138 µM) | IC90 [11]: 0.007 µg/mL (≈ 0.0147 µM) | IC90 [15]: 0.024 µg/mL (≈ 0.0503 µM) | IC90 [20]: 0.017 µg/mL (≈ 0.0356 µM) | Papp A→B at 2 h, 5 µM [31]: 44.2 ×10⁻⁶ cm/s | IC90 [27]: 0.034 µg/mL (≈ 0.0712 µM) | IC90 [28]: 0.061 µg/mL (≈ 0.128 µM)

CN(CCNCC(O)c1cc(C(F)(F)F)nc2c(C(F)(F)F)cccc12)C1CCCC1 (configuration not stated)
IC90 [30]: 0.112 µg/mL (≈ 0.249 µM) | IC90 [11]: 0.011 µg/mL (≈ 0.0245 µM) | IC90 [15]: 0.048 µg/mL (≈ 0.107 µM) | IC90 [20]: 0.035 µg/mL (≈ 0.0779 µM) | Papp A→B at 2 h, 5 µM [31]: 17 ×10⁻⁶ cm/s | IC90 [27]: 0.109 µg/mL (≈ 0.243 µM) | IC90 [28]: 0.106 µg/mL (≈ 0.236 µM)

O[C@@H](CNCCNC1CC1)c1cc(C(F)(F)F)nc2c(C(F)(F)F)cccc12
IC90 [1]: 0.011 µg/mL (≈ 0.027 µM) | IC90 [5]: 0.103 µg/mL (≈ 0.253 µM) | IC90 [32]: 0.075 µg/mL (≈ 0.184 µM) | IC90 [29]: 0.037 µg/mL (≈ 0.0908 µM)

CCN(CC)CCCC(C)Nc1ccnc2cc(Cl)ccc12 (configuration not stated) [CHLOROQUINE]
IC90 [1]: 0.266 µg/mL (≈ 0.832 µM) | IC90 [5]: 0.089 µg/mL (≈ 0.278 µM) | IC90 [32]: 0.139 µg/mL (≈ 0.435 µM) | IC90 [29]: 0.0051 µg/mL (≈ 0.0159 µM)

CC1CC(C)CN(CCNCC(O)c2cc(C(F)(F)F)nc3c(C(F)(F)F)cccc23)C1 (configuration not stated)
IC90 [30]: 0.011 µg/mL (≈ 0.0237 µM) | IC90 [11]: < 0.001 µg/mL | IC90 [15]: 0.005 µg/mL (≈ 0.0108 µM) | IC90 [20]: 0.01 µg/mL (≈ 0.0216 µM) | Papp A→B at 2 h, 5 µM [31]: 32.7 ×10⁻⁶ cm/s | IC90 [27]: 0.056 µg/mL (≈ 0.121 µM) | IC90 [28]: 0.01 µg/mL (≈ 0.0216 µM)

CC(CN1CCCC1)NCC(O)c1cc(C(F)(F)F)nc2c(C(F)(F)F)cccc12 (configuration not stated)
IC90 [30]: 0.071 µg/mL (≈ 0.163 µM) | IC90 [11]: 0.011 µg/mL (≈ 0.0253 µM) | IC90 [15]: 0.039 µg/mL (≈ 0.0896 µM) | IC90 [20]: 0.008 µg/mL (≈ 0.0184 µM) | Papp A→B at 2 h, 5 µM [31]: 33.1 ×10⁻⁶ cm/s | IC90 [27]: 0.055 µg/mL (≈ 0.126 µM) | IC90 [28]: 0.079 µg/mL (≈ 0.181 µM)

CCCCNCCNCC(O)c1cc(C(F)(F)F)nc2c(C(F)(F)F)cccc12 (configuration not stated)
IC90 [30]: 0.319 µg/mL (≈ 0.753 µM) | IC90 [11]: 0.069 µg/mL (≈ 0.163 µM) | IC90 [15]: 0.155 µg/mL (≈ 0.366 µM) | IC90 [20]: 0.128 µg/mL (≈ 0.302 µM) | Papp A→B at 2 h, 5 µM [31]: 5.9 ×10⁻⁶ cm/s | IC90 [27]: 0.236 µg/mL (≈ 0.557 µM) | IC90 [28]: 0.283 µg/mL (≈ 0.668 µM)

O[C@H](CNCCNC1CC1)c1cc(C(F)(F)F)nc2c(C(F)(F)F)cccc12
IC90 [1]: 0.011 µg/mL (≈ 0.027 µM) | MST [2]: 16 days | survival at 160 mg/kg [3]: 0% | MST [4]: 10 days | IC90 [5]: 0.077 µg/mL (≈ 0.189 µM) | IC90 [32]: 0.073 µg/mL (≈ 0.179 µM) | MST [6]: 6.8 days | Activity [7]: 0% | survival at 40 mg/kg [8]: 0% | survival at 10 mg/kg [9]: 0% | MST [10]: 30 days | survival at 320 mg/kg [12]: 100% | survival at 20 mg/kg [13]: 0% | MST [14]: 6.6 days | survival at 80 mg/kg [16]: 0% | MST [17]: 6.6 days | Activity [18]: 0% | survival at 5 mg/kg [19]: 0% | MST [21]: 19 days | Activity [22]: 0% | Activity [23]: 0% | Activity [24]: 80% | Activity [25]: 0% | Activity [26]: 0% | IC90 [29]: 0.027 µg/mL (≈ 0.0663 µM)
